# From ChEMBL document CHEMBL3885881, “DrugMatrix”
# Species on record: Rattus norvegicus
# Test: DrugMatrix - Regimen: Daily Repeat
# Assay type: toxicity, organism-based, Sprague-Dawley
# Design: regimen Daily Repeat, gender Male, age 6-8 weeks
# Settings: in vivo, po, route oral GAVAGE, vehicle 100 % WATER; for ABSOLUTE BASOPHIL / ABSOLUTE EOSINOPHIL / ABSOLUTE LYMPHOCYTE / ABSOLUTE MONOCYTE / ABSOLUTE SEGMENTED NEUTROPHIL / BASOPHIL / EOSINOPHIL / ERYTHROCYTE COUNT / HEMATOCRIT / HEMOGLOBIN / LEUKOCYTE COUNT / LYMPHOCYTE / MEAN CORPUSCULAR HEMOGLOBIN / MEAN CORPUSCULAR HEMOGLOBIN CONCENTRATION / MEAN CORPUSCULAR VOLUME / MONOCYTE / NEUTROPHIL / NUCLEATED RED BLOOD CELLS / PLATELET COUNT: tissue Blood; for ALANINE AMINOTRANSFERASE / ALBUMIN / ALKALINE PHOSPHATASE / ASPARTATE AMINOTRANSFERASE / BLOOD UREA NITROGEN / CARBON DIOXIDE / CHLORIDE / CHOLESTEROL / CREATINE PHOSPHOKINASE / CREATININE / GLUCOSE / LACTATE DEHYDROGENASE / LIPASE / PHOSPHORUS / POTASSIUM / SODIUM / TOTAL BILIRUBIN / TOTAL PROTEIN / URIC ACID: tissue Plasma
# [1] = 160 mg/kg, 120 h, dose level Low, time 5 day
# [2] = 1000 mg/kg, 72 h, dose level High, time 3 day
# [3] = 1000 mg/kg, 120 h, dose level High, time 5 day
structure (smiles),measurement,setting,value
N[C@@H](Cc1ccc(O)c(O)c1)C(=O)O [LEVODOPA],ABSOLUTE BASOPHIL,[1],0 CELLS/uL
same,ABSOLUTE EOSINOPHIL,[1],0 CELLS/uL
same,ABSOLUTE LYMPHOCYTE,[1],7319.33 CELLS/uL
same,ABSOLUTE MONOCYTE,[1],56 CELLS/uL
same,ABSOLUTE SEGMENTED NEUTROPHIL,[1],1058 CELLS/uL
same,BASOPHIL,[1],0%
same,EOSINOPHIL,[1],0%
same,ERYTHROCYTE COUNT,[1],5.23 x10E6/uL
same,HEMATOCRIT,[1],34.27%
same,HEMOGLOBIN,[1],13 G/DL
same,LEUKOCYTE COUNT,[1],8.43 x10E3/uL
same,LYMPHOCYTE,[1],87.67%
same,MEAN CORPUSCULAR HEMOGLOBIN,[1],25.13 pg
same,MEAN CORPUSCULAR HEMOGLOBIN CONCENTRATION,[1],38 G/DL
same,MEAN CORPUSCULAR VOLUME,[1],66.13 fL
same,MONOCYTE,[1],0.67%
same,NEUTROPHIL,[1],11.67%
same,NUCLEATED RED BLOOD CELLS,[1],0 /100WBC
same,PLATELET COUNT,[1],1259.67 x10E3/uL
same,ALANINE AMINOTRANSFERASE,[1],48 u/L
same,ALBUMIN,[1],4.1 G/DL
same,ALKALINE PHOSPHATASE,[1],360.33 u/L
same,ASPARTATE AMINOTRANSFERASE,[1],84.33 u/L
same,BLOOD UREA NITROGEN,[1],16 mg/dL
same,CARBON DIOXIDE,[1],30.33 mmol/L
same,CHLORIDE,[1],103 MEQ/L
same,CHOLESTEROL,[1],58 mg/dL
same,CREATINE PHOSPHOKINASE,[1],286.33 u/L
same,CREATININE,[1],0.17 mg/dL
same,GLUCOSE,[1],137 mg/dL
same,LACTATE DEHYDROGENASE,[1],128 u/L
same,LIPASE,[1],10 u/L
same,PHOSPHORUS,[1],10.63 mg/dL
same,POTASSIUM,[1],6.08 MEQ/L
same,SODIUM,[1],145.37 MEQ/L
same,TOTAL BILIRUBIN,[1],0.17 mg/dL
same,TOTAL PROTEIN,[1],5.97 G/DL
same,URIC ACID,[1],1.03 mg/dL
same,ABSOLUTE BASOPHIL,[2],0 CELLS/uL
same,ABSOLUTE EOSINOPHIL,[2],0 CELLS/uL
same,ABSOLUTE LYMPHOCYTE,[2],14031 CELLS/uL
same,ABSOLUTE MONOCYTE,[2],188.67 CELLS/uL
same,ABSOLUTE SEGMENTED NEUTROPHIL,[2],780.33 CELLS/uL
same,BASOPHIL,[2],0%
same,EOSINOPHIL,[2],0%
same,ERYTHROCYTE COUNT,[2],5.75 x10E6/uL
same,HEMATOCRIT,[2],36.23%
same,HEMOGLOBIN,[2],13.9 G/DL
same,LEUKOCYTE COUNT,[2],15 x10E3/uL
same,LYMPHOCYTE,[2],93.33%
same,MEAN CORPUSCULAR HEMOGLOBIN,[2],24.2 pg
same,MEAN CORPUSCULAR HEMOGLOBIN CONCENTRATION,[2],38.37 G/DL
same,MEAN CORPUSCULAR VOLUME,[2],63 fL
same,MONOCYTE,[2],1%
same,NEUTROPHIL,[2],5.67%
same,NUCLEATED RED BLOOD CELLS,[2],0.33 /100WBC
same,PLATELET COUNT,[2],1320 x10E3/uL
same,ALANINE AMINOTRANSFERASE,[2],57.33 u/L
same,ALBUMIN,[2],4.13 G/DL
same,ALKALINE PHOSPHATASE,[2],415 u/L
same,ASPARTATE AMINOTRANSFERASE,[2],88 u/L
same,BLOOD UREA NITROGEN,[2],14 mg/dL
same,CARBON DIOXIDE,[2],32 mmol/L
same,CHLORIDE,[2],101.67 MEQ/L
same,CHOLESTEROL,[2],54.33 mg/dL
same,CREATINE PHOSPHOKINASE,[2],336.67 u/L
same,CREATININE,[2],0.2 mg/dL
same,GLUCOSE,[2],120 mg/dL
same,LACTATE DEHYDROGENASE,[2],167.33 u/L
same,LIPASE,[2],10.33 u/L
same,PHOSPHORUS,[2],11 mg/dL
same,POTASSIUM,[2],6.09 MEQ/L
same,SODIUM,[2],145.53 MEQ/L
same,TOTAL BILIRUBIN,[2],0.17 mg/dL
same,TOTAL PROTEIN,[2],6.07 G/DL
same,URIC ACID,[2],0.8 mg/dL
same,ABSOLUTE BASOPHIL,[3],0 CELLS/uL
same,ABSOLUTE EOSINOPHIL,[3],0 CELLS/uL
same,ABSOLUTE LYMPHOCYTE,[3],11289.33 CELLS/uL
same,ABSOLUTE MONOCYTE,[3],104.67 CELLS/uL
same,ABSOLUTE SEGMENTED NEUTROPHIL,[3],539.33 CELLS/uL
same,BASOPHIL,[3],0%
same,EOSINOPHIL,[3],0%
same,ERYTHROCYTE COUNT,[3],6.06 x10E6/uL
same,HEMATOCRIT,[3],37.27%
same,HEMOGLOBIN,[3],14.47 G/DL
same,LEUKOCYTE COUNT,[3],11.93 x10E3/uL
same,LYMPHOCYTE,[3],95.33%
same,MEAN CORPUSCULAR HEMOGLOBIN,[3],23.87 pg
same,MEAN CORPUSCULAR HEMOGLOBIN CONCENTRATION,[3],38.83 G/DL
same,MEAN CORPUSCULAR VOLUME,[3],61.43 fL
same,MONOCYTE,[3],0.67%
same,NEUTROPHIL,[3],4%
same,NUCLEATED RED BLOOD CELLS,[3],0 /100WBC
same,PLATELET COUNT,[3],1582 x10E3/uL
same,ALANINE AMINOTRANSFERASE,[3],46.33 u/L
same,ALBUMIN,[3],4.17 G/DL
same,ALKALINE PHOSPHATASE,[3],308.33 u/L
same,ASPARTATE AMINOTRANSFERASE,[3],68 u/L
same,BLOOD UREA NITROGEN,[3],20.33 mg/dL
same,CARBON DIOXIDE,[3],33.67 mmol/L
same,CHLORIDE,[3],101.67 MEQ/L
same,CHOLESTEROL,[3],59.33 mg/dL
same,CREATINE PHOSPHOKINASE,[3],271.67 u/L
same,CREATININE,[3],0.21 mg/dL
same,GLUCOSE,[3],124 mg/dL
same,LACTATE DEHYDROGENASE,[3],116.67 u/L
same,LIPASE,[3],10 u/L
same,PHOSPHORUS,[3],10.37 mg/dL
same,POTASSIUM,[3],6.24 MEQ/L
same,SODIUM,[3],147.43 MEQ/L
same,TOTAL BILIRUBIN,[3],0.17 mg/dL
same,TOTAL PROTEIN,[3],6.13 G/DL
same,URIC ACID,[3],1.2 mg/dL
